These are literature values, as cited in patent US5686420A, “Thyrotropin-releasing hormone analogs and method of use” (Georgetown University, priority 1995, dated 1997).

The conditions of the data set: in vivo.

Take `NC(=O)[C@@H]1CCCN1C(=O)[C@H](Cc1cnc[nH]1)NC(=O)[C@@H]1CCC(=O)N1` [TRH, L-pyroglutamyl-L-histidyl-L-prolineamide]: the plasma half-life is 4 to 5 min.
